These results are taken from US20100256196A1, “Biomarkers for Atherosclerosis” (IKFE, priority 2008, published 2010).

SMILES strings stand for the structures.

Data set [1] has as its system MIF. The note with it: six week treatment, eight non-diabetic patients with obesity; cited from earlier work.
The subject of data set [2] is patients with type 2 diabetes and established atherosclerosis. As to the kind of experiment: Clinical and biochemical observation parameters, double-blind placebo-controlled study, 4 weeks add-on treatment. It counts as in vivo, human. As to conditions: mean ± SD; for Glucose: fasting; for HOMAIR: insulin resistance score; for IL-6 / MIF / MMP-9: plasma protein; for Adiponectin / Angiotensin II / Complement factor C3 / Insulin / Intact proinsulin / P-seclectin / sCD40L: plasma.

Data set [3] has as its system NFκB and NFκB-modulated cytokines in circulating peripheral mononuclear cells. Nature of the data set: mRNA expression in circulating mononuclear cells (CD14+ monocytes/macrophages), calibrator-normalized relative quantification by LightCycler PCR. The note with it: normalized ratio, reference gene β-actin, mean ± SD. It is filed as in vivo, human. The source says: Blood for the measurement of fasting glucose, MMP-9, and hsCRP was taken at baseline and after 3, 7, 10, 14 and 28 days of study treatment. Blood for assessment of the mRNA expression profile of circulating mononuclear cells as well as for assessment of circulating plasma levels of HbAlc, Insulin, Intact Proinsulin, Adiponectin, IL-6, sCD40L, P-Selectin, MIF, Angiotensin II, complement factor 3, and blood lipids were obtained at baseline and at the end of the study. Insulin resistance was calculated using the HOMAIR score at baseline and study endpoint as published previously (29, 30).
Isolation of MNC from whole blood was performed as a density gradient centrifugation by means of the ACCUSPIN System-HISTOPAQUE-1077 (Sigma-Aldrich Chemie GmbH, Steinheim, Germany). The isolation of macrophages and monocytes from the collected cells was performed by MACS magnetic cell sorting with CD14 MicroBeads (human) (Miltenyi Biotec GmbH, Bergisch Gladbach, Germany). The CD14 positive (CD14+) cells (macrophages and monocytes) were first magnetically labeled with MACS CD14 MicroBeads. The cell suspension was loaded on a MS MACS Column which was placed in the magnetic field of a MiniMACS Separator. The magnetically labeled CD14+ cells were retained in the column and separated from the unlabelled cell fraction.
The mRNA isolation from macrophages and monocytes was performed with the High Pure RNA Isolation Kit (Roche Applied Science, Penzberg, Germany). The cells were first lysed and the intact and undegraded RNA was adsorbed to a glass fibre fleece. Simultaneously, RNAses were inactivated. Furthermore, residues of contaminating DNA were digested and the RNA was purified from salts, proteins and other impurities. Purity of the isolated mRNA was assessed by real-time PCR (LightCycler II, Roche Diagnostics, Mannheim, Germany). The transcription of mRNA in cDNA was performed on a thermocycler (Biozym Diagnostik GmbH, Oldendorf, Germany) according to a standardized protocol (‘Transcriptor First Strand cDNA Synthesis Kit’, Instruction Manual Version 1, 2004, Roche Applied Science, Penzberg, Germany).
Sequence specific primers were designed by TIB MOLBIOL (Syntheselabor GmbH, Berlin, Germany) to amplify the gene sequences of Rel-A, p105, IκB-α, IκB-β and IL-6. The primers for TNF-α were taken from “Rapid Cycle Real-Time PCR Methods and Applications Quantification” (31). The primers for MIF and MMP-9 were reproduced from previous reports (12, 32). A list of the primers used for the quantification experiments, the primer-specific PCR protocols and the specific amplification product melting points are provided in Table 1. An additional agarose gel electrophoresis assay was performed to verify the correct length of the amplification products.
The RNA quantification in this study, was performed by means of a calibrator-normalized relative quantification method based on the LightCycler II system (Roche Diagnostics, Mannheim, Germany), where quantification of a target and a reference gene is a function of PCR efficiency and the sample crossing point. The sample crossing point is the amplification cycle during an amplification assay, at which the fluorescence of a probe rises above background fluorescence. This occurs usually at the second derivative maximum (fastest change in fluorescence). […] In these experiments, β-actin is the most abundant protein in eukaryotic cells with constant expression (33). […] The principle of this method is the determination of the relative amount of the target gene and the reference gene for each sample and for the calibrator. […] All experiments were performed in triple replications.
Data are presented as arithmetic mean±standard deviation (SD) for continuous variables or mean±SEM for percent changes from baseline and as the number/proportion of patients for categorical variables.

For data set [4] the following is noted: in vivo; cited from earlier work.
Setting [5] is: endpoint, after 4 weeks 45 mg pioglitazone add-on.
[6] abbreviates: endpoint, after 4 weeks of pioglitazone.

As to `CN(C)C(=N)N=C(N)N` [metformin], the “Plasma concentration of MIF and transcription of MIF mRNA in mononuclear cells” value in data set [1] is given as “reduced”.

On to `CCc1ccc(CCOc2ccc(CC3SC(=O)NC3=O)cc2)nc1` (stereo not drawn) [pioglitazone], for which, in data set [2] (setting [5]), the BMI is reported as 31.4 ± 4.5 kg/m^2, the Diastolic blood pressure stood at 80 ± 11 mmHg, the HDL cholesterol stood at 1.26 ± 0.26 mmol/L and the HbA1c is on record as 6.8 ± 0.9%. Besides, in data set [2] (setting [5]), the LDL cholesterol came to 2.52 ± 0.76 mmol/L, the Systolic blood pressure is reported as 137 ± 18 mmHg, the “Total Cholesterol” value came out at 4.78 ± 1.09 mmol/L and the hsCRP amounted to 1.9 ± 1.7 mg/L. In data set [2] (setting [5]), this compound returned a sICAM of 319 ± 86 µg/L, a sVCAM of 943 ± 452 µg/L, a Glucose of 122 ± 35 mg/dL and an HOMAIR of 3.9 ± 2.6. Further, in data set [2] (setting [5]), the IL-6 came to 3.2 ± 0.1 ng/L, the MIF came to 9.6 ± 3.5 µg/L, the MMP-9 is 284 ± 101 µg/L and the Adiponectin was determined as 22.1 ± 9.1 µg/mL. Besides, in data set [2] (setting [5]), the “Angiotensin II” value worked out at 8.0 ± 8.8 µg/L, the “Complement factor C3” value came out at 1.5 ± 0.3 g/L, the Insulin was 12 ± 7 μU/ml and the Intact proinsulin came to 19 ± 17 pmol/L. In data set [2] (setting [5]), this compound showed a P-seclectin of 93 ± 22 µg/L and a sCD40L of 1.1 ± 1.1 µg/L. In data set [2] (pioglitazone arm, baseline), this compound registered a Glucose of 142 ± 40 mg/dL, an HOMAIR of 5.9 ± 4.4, a BMI of 31.0 ± 4.3 kg/m^2 and a Diastolic blood pressure of 83 ± 11 mmHg. Also, in data set [2] (pioglitazone arm, baseline), the HDL cholesterol is 1.18 ± 0.24 mmol/L, the HbA1c is on record as 7.0 ± 1.1%, the LDL cholesterol was 2.46 ± 0.80 mmol/L and the Systolic blood pressure came to 144 ± 15 mmHg. In data set [2] (pioglitazone arm, baseline), the “Total Cholesterol” value amounted to 4.63 ± 0.99 mmol/L, the hsCRP stood at 2.9 ± 1.7 mg/L, the sICAM was 326 ± 90 µg/L and the sVCAM was found to be 915 ± 409 µg/L. Moreover, in data set [2] (pioglitazone arm, baseline), the IL-6 was found to be 3.3 ± 0.5 ng/L, the MIF stood at 10.4 ± 5.3 µg/L, the MMP-9 came out at 344 ± 118 µg/L and the Adiponectin amounted to 8.7 ± 3.5 µg/mL. For the same compound, in data set [2] (pioglitazone arm, baseline), the “Angiotensin II” value came to 10.2 ± 9.2 µg/L, the “Complement factor C3” value was 1.6 ± 0.4 g/L, the Insulin stood at 17 ± 10 μU/ml and the Intact proinsulin was 30 ± 37 pmol/L. In data set [2] (pioglitazone arm, baseline), this compound yielded a P-seclectin of 95 ± 20 µg/L and a sCD40L of 1.6 ± 1.8 µg/L. For the same compound, in data set [3] (setting [6]), the “IL-6 mRNA expression” value came to 1.05 ± 0.46, the “IκB-β mRNA expression” value amounted to 3.30 ± 2.41, the “MIF mRNA expression” value is listed as 0.84 ± 0.31 and the “MMP-9 mRNA expression” value worked out at 1.48 ± 1.18. Besides, in data set [3] (setting [6]), the “RelA (p65 subunit of NF-κB) mRNA expression” value turned out to be 0.95 ± 0.44, the “TNFα mRNA expression” value was 1.70 ± 0.93 and the “p105 (p50 subunit of NF-κB) mRNA expression” value amounted to 1.33 ± 0.46. In addition, in data set [3] (pioglitazone arm, baseline), the “IL-6 mRNA expression” value is recorded as 1.13 ± 0.52, the “IκB-β mRNA expression” value worked out at 3.17 ± 2.05, the “MIF mRNA expression” value worked out at 0.98 ± 0.40 and the “MMP-9 mRNA expression” value was 2.29 ± 2.68. For the same compound, in data set [3] (pioglitazone arm, baseline), the “RelA (p65 subunit of NF-κB) mRNA expression” value is recorded as 1.20 ± 0.74, the “TNFα mRNA expression” value is recorded as 1.88 ± 1.20 and the “p105 (p50 subunit of NF-κB) mRNA expression” value turned out to be 1.63 ± 0.80.

Take `Cc1c(C)c2c(c(C)c1O)CCC(C)(COc1ccc(CC3SC(=O)NC3=O)cc1)O2` (stereo not drawn) [troglitazone]: in data set [4], the “Reason for being taken from the market” value is “hepatotoxiciy”.
